The target in this experiment is T1, Prostaglandin-H2 D-isomerase (Sus scrofa, UniProt Q29095).
T1 sequence (Q29095 whole entry): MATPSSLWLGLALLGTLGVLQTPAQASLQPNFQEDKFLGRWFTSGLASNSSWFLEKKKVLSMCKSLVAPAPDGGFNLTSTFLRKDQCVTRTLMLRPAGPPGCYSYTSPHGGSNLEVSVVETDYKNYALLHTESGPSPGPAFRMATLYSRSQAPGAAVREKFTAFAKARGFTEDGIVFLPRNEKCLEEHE

Among the data in BindingDB's records for PubMed 11454901 (Shionogi, 2001) are Ki values, retold here.

Consider `CC1(C)[C@H]2C[C@H](C/C=C\CCCC(=O)O)[C@@H](NC(=O)c3csc4ccc(O)cc34)[C@@H]1C2`, for which the affinity, expressed as Ki, was 193 nM.

As to `O=C(O)CCC/C=C\C[C@@H]1C(NS(=O)(=O)c2ccccc2)C2CC[C@@H]1C2` (single isomer, unassigned; (+)) [S 145], the affinity, expressed as Ki, was 0.49 nM.
